Series [1] has as its target T1, endogenous AR (Homo sapiens, UniProt P10275).
T1 construct: that each express endogenous AR; endogenous in cells; host or cells: LAPC4
T1 sequence (P10275 1-920): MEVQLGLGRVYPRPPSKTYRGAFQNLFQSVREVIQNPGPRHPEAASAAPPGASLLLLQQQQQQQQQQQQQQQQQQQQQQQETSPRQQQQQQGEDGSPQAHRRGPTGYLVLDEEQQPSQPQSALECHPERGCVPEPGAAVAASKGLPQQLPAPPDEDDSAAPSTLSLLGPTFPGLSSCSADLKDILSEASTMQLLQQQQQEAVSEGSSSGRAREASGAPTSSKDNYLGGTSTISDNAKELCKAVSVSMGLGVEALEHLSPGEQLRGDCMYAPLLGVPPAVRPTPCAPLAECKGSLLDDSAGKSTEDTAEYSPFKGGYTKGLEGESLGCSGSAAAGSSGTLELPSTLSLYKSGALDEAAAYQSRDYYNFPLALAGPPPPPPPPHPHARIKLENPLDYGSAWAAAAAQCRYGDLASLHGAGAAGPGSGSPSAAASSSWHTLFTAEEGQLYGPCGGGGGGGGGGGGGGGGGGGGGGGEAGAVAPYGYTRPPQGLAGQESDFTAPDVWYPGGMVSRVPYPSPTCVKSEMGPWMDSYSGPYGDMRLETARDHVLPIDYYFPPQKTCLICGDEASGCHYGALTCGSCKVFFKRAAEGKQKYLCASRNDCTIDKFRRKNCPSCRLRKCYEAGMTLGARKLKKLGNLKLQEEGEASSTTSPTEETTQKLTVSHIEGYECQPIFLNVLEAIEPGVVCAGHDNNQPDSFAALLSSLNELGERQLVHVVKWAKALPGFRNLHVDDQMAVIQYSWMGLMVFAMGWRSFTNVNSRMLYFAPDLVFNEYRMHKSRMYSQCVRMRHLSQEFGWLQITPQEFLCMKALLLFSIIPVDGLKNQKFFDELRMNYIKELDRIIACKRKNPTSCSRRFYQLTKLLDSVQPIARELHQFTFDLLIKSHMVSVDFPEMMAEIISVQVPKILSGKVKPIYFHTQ
The class given is cell-based. The settings on record: LAPC4, 3 nM DHT plus 1 μM BIC, 100 nM PP or 100 nM HH. The procedure:
(§1) LAPC4 and LNCaP cells were grown in the presence or absence of 3 nM DHT in charcoal-stripped media, with or without the inhibitors. RNA was harvested using an RNAeasy kit (Qiagen) and reverse transcribed (MMLV-RT, Invitrogen). Real-time PCR was carried out on a 7300 Real Time PCR System (Applied Biosystems) using SYBR green as the detecting dye and Rox as the reference dye. The androgen responsive genes kalikrein 3, or PSA (KLK3) [Cleutjens, K. B., et al., Two androgen response regions cooperate in steroid hormone regulated activity of the prostate-specific antigen promoter. J Biol Chem, 1996. 271(11): p. 6379-88; Nelson, P. S., et al., The program of androgen-responsive genes in neoplastic prostate epithelium. Proc Natl Acad Sci USA, 2002. 99(18): p. 11890-5), metalloproteinase 16 (MMP16) (Nelson, P. S., et al., The program of androgen-responsive genes in neoplastic prostate epithelium. Proc Natl Acad Sci USA, 2002. 99(18): p. 11890-5), transmembrane protease serine 2 (TMPRSS2) (Nelson, P. S., et al., The program of androgen-responsive genes in neoplastic prostate epithelium. Proc Natl Acad Sci USA, 2002. 99(18): p. 11890-5; […] Vaarala, M. H., et al., Expression of transmembrane serine protease TMPRSS2 in mouse and human tissues. J Pathol, 2001. 193(1): p. 134-40), FK506-binding immunophilin 51 (FKBP51) (Nelson, P. S., et al., The program of androgen-responsive genes in neoplastic prostate epithelium. Proc Natl Acad Sci USA, 2002. 99(18): p. 11890-5; Amler, L. C., et al., Dysregulated expression of androgen-responsive and nonresponsive genes in the androgen-independent prostate cancer xenograft model CWR22-R1. Cancer Res, 2000. 60(21): p. 6134-41; Velasco, A. M., et al., Identification and validation of novel androgen-regulated genes in prostate cancer. Endocrinology, 2004. 145(8): p. 3913-24; Magee, J. A., et al., Direct, androgen receptor-mediated regulation of the FKBP5 gene via a distal enhancer element. Endocrinology, 2006. 147(1): p. 590-8), G-protein coupled receptor RDC1 homolog, or chemokine orphan receptor 1 (RDC-1) (Nelson, P. S., et al., The program of androgen-responsive genes in neoplastic prostate epithelium. Proc Natl Acad Sci USA, 2002. 99(18): p. 11890-5), NK homeobox family member 3 (NRx3.1) (Nelson, P. S., et al., The program of androgen-responsive genes in neoplastic prostate epithelium. Proc Natl Acad Sci USA, 2002. 99(18): p. 11890-5; Bieberich, C. J., et al., Prostate-specific and androgen-dependent expression of a novel homeobox gene. J Biol Chem, 1996. 271(50): p. 31779-82; […]) were all normalized to the transcription of the housekeeping ribosomal gene (RPL19). All samples were done in triplicate and separately normalized.

The target of series [2] is T2, endogenous AR (Homo sapiens, UniProt P10275, T878A).
T2 construct: that each express endogenous AR; endogenous in cells; host or cells: LNCaP
The class given is cell-based. Conditions: LNCaP, 3 nM DHT plus 1 μM BIC, 100 nM PP or 100 nM HH. Here is the method:
as §1

Series [3] concerns the target T3, AR (Homo sapiens, UniProt P10275, T878A).
T3 construct: that each express endogenous AR; endogenous in cells; host or cells: LNCaP
The series is described as follows: DHT titration against inhibitor, PSA-luciferase reporter in LNCaP cells (competitive vs non-competitive). Conditions: moderate dose of inhibitor, DHT titrated, hydrochloride. It counts as cell-based. For orientation: A reporter such as luciferase makes a cellular process visible.

The nature of series [4]: Pharmacokinetics in mice, drug levels by mass spectrometry. It counts as in vivo.
From the text: Serum samples were obtained at fixed time intervals, and the drug levels determined by mass spectrometry.

“Also recorded” adds a separate entry of the source. Counter-ions that a name gives are not always drawn.

T2 sequence (P10275 whole entry T878A): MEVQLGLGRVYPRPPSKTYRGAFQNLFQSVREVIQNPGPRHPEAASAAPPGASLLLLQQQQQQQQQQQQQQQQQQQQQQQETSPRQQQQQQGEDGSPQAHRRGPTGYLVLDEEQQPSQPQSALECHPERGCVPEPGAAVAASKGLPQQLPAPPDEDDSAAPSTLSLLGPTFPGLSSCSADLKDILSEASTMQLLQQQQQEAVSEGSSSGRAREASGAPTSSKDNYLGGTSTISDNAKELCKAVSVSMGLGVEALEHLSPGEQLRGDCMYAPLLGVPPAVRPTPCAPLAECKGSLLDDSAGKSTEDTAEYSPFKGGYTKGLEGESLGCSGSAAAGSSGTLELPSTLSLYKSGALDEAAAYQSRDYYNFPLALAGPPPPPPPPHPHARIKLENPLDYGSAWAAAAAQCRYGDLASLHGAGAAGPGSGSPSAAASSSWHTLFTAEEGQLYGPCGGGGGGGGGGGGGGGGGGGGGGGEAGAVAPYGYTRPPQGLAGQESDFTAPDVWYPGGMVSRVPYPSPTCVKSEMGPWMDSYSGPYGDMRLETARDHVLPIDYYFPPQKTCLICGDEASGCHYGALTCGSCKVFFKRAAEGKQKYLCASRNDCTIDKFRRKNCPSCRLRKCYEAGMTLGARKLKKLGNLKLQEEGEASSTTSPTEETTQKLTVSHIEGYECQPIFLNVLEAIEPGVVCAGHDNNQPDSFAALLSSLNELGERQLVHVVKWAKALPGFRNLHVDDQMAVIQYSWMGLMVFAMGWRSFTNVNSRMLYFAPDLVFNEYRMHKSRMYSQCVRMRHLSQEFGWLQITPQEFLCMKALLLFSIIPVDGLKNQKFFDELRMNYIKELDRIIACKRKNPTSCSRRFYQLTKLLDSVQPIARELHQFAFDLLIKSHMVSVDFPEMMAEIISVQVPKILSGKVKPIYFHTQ
T3 sequence (P10275 whole entry T878A): as above

With `Cc1nccc2c1[nH]c1cc(O)ccc12` [HH, harmol hydrochloride], the “Nkx3.1 transcription (normalized to RPL19)” value in series [1] (No DHT = 1, 3 nM DHT = 1.08) is given as 1.55; in series [2] (No DHT = 1, 3 nM DHT = 2.00), 1.28. Further, the “TMPRSS2 transcription (normalized to RPL19)” value in series [1] (No DHT = 1, 3 nM DHT = 1.13) was determined as 1.86; in series [2] (No DHT = 1, 3 nM DHT = 3.70) it was 1.22. Moreover, the “KLK3 transcription (normalized to RPL19)” value in series [1] (No DHT = 1, 3 nM DHT = 1.97) was determined as 1.64; in series [2] (No DHT = 1, 3 nM DHT = 1.89), 1.46. For the same compound, the “FKBP51 transcription (normalized to RPL19)” value in series [1] (No DHT = 1, 3 nM DHT = 21.4) was determined as 11.96; in series [2] (No DHT = 1, 3 nM DHT = 2.15), 1.90. In addition, the “RDC1 transcription (normalized to RPL19)” value in series [1] (androgen-repressed gene, No DHT = 1, 3 nM DHT = 0.63) is on record as 2.88; in series [2] (androgen-repressed gene, No DHT = 1, 3 nM DHT = 0.66), 1.22. Further, the “MMP16 transcription (normalized to RPL19)” value was determined as 4.74 in series [1] (androgen-repressed gene, No DHT = 1, 3 nM DHT = 0.71) and 1.02 in series [2] (androgen-repressed gene, No DHT = 1, 3 nM DHT = 0.61). For the same compound, the “Mode of antagonism on DHT titration” value in series [3] is listed as “inhibited maximal DHT-induced activation; also recorded: consistent with a non-competitive antagonist”. The “Plasma concentration” value in series [4] (mice, single IP injection 5 mg/kg, 1 hr) is 5.0 ng/mL. Also, the “Clearance / half-life (in words)” value in series [4] (wild-type FVB mice, single intraperitoneal injection) was “rapidly cleared”.

The values are drawn from patent US8580773B2, “Small-molecule inhibitors of the androgen receptor” (The Regents of the University of California, priority 2008, dated 2013).
